The values below come from patent US11899025B2, “Pharmaceutical composition for preventing or treating neurodegenerative diseases comprising COX2 acetylating agent as active ingredient” (KYUNGPOOK NATIONAL UNIVERSITY INDUSTRY-ACADEMIC COOPERATION …, priority 2018, dated 2024).

The target of one assay is T1, COX2 (Mus musculus, UniProt Q05769).
T1 construct: endogenous in cells; host or cells: primary neurons from mouse cerebrum
T1 sequence (Q05769 18-604): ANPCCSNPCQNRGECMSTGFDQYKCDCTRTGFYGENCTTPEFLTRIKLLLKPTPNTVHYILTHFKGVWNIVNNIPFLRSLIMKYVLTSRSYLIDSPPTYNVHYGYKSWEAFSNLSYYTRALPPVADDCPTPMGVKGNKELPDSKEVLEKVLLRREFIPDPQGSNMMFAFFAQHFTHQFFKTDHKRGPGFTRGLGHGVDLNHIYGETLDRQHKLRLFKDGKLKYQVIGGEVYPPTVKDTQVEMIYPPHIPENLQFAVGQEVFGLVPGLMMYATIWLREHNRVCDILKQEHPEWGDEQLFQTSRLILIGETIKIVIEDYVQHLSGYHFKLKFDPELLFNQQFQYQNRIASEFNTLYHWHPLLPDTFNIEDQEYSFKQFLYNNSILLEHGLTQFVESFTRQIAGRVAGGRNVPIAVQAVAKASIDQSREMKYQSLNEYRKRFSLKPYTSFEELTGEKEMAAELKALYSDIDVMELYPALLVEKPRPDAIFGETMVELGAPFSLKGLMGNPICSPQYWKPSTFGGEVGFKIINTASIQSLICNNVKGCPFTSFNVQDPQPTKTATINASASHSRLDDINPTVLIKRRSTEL
Kind of assay: COX2 acetylation analysis with [14C]N-acetyl sphingosine. It is filed as cell-based. As to conditions: 2 uCi [14C]N-acetyl sphingosine; FIG. 8c. How it is done: In order to measure the neuroinflammatory resolution factor, after culturing neurons from mouse cerebrum, CM was prepared by treatment with 10 nM N-acetyl sphingosine 1 phosphate (Toronto Research chemicals, C262710) and N-acetyl sphingosine (Sigma, 01912). For COX2 acetylation analysis, neurons were cultured from mouse cerebrum and then treated with 2 uCi [^14C]N-acetyl sphingosine (ARC, ARC1024). In addition, for in vivo experiments, 7-month-old APP/PS1 mice were injected with 5 mg/kg N-acetyl sphingosine (Sigma, 01912), 1 mg/kg FTY720 and 3 uM S1P daily for 4 weeks via intraperitoneal injection. 1 month-old NPC mice were injected with 5 mg/kg N-acetyl sphingosine (Sigma, 01912) and 2-month-old FUS mice with 30 mg/kg N-acetyl sphingosine (Sigma, 01912) daily for 4 weeks via subcutaneous injection.
Next, it was confirmed using N-acetyl sphingosine with C^14 attached to confirm whether the secretion of the neuroinflammatory resolution factor by the compounds was due to the increase in COX2 acetylation,
In addition, it was confirmed that serine 565 (S565) against the COX2 peptide 560-[…]-575 was acetylated in the presence of N-acetyl sphingosine (FIG. 8d).

Another assay deals with NP-C mice. Kind of assay: Niemann-Pick (NP-C) animal model: immunofluorescence, Rota-rod, Beam test. It is filed as in vivo, mouse. Conditions: 1 month-old NPC mice, 5 mg/kg daily for 4 weeks, subcutaneous. An excerpt:
(§1) It has been approved for mouse experiments by the Kyungpook National University Institutional Animal Care and Use Committee (IACUC). A transgenic mouse line overexpressing APPswe (hAPP695swe) or PS1 (presenilin-1M146V) based on C57BL/6 mice (Charles River, UK) was used. [Hereinafter, APP mouse: mouse overexpressing APPswe, PS1 mouse: mouse overexpressing presenilin-1M146V; GlaxoSmithKline]. As an Alzheimer's (AD) animal model, SphK1 tg (SphK1 gene overexpressing mouse) was crossed with APP mice and APP/PS1 mice to prepare APP/PS1/SphK1 tg mice. Niemanpick (NP-C) animal model, Balb/C (Orient, Wild type), NPC mutant mouse lacking NPC1 gene (Provided by Riken, Japan, NP-C mice; less weight than normal mice of the same age, and severe motor function loss from 4 to 6 weeks of age, limb tremors and seizures appear, and lifespan is approximately 9 to 10 weeks. Is) was used. As an animal model for amyotrophic lateral sclerosis (ALS), a transgenic mouse (FUS) line overexpressing RUS R521C based on C57BL/6 mice (Charles River, UK) was used.
(§2) After fixing the cerebral and hippocampus of the mouse, anti-20G10 (mouse, 1:1000) against amyloid-β (Aβ) 42 and anti-G30 (rabbit, 1:1000) against Aβ 40, anti-MAP2 (chicken, 1:2000), anti-Synaptophysin (mouse, 1:100), anti-Synapsin1 (rabbit, 1:500), anti-PSD95 (mouse, 1:100), anti-Iba-1 (rabbit, 1:500), Anti-GFAP (rabbit, 1:500) was cultured together. The site was analyzed using a laser scanning confocal microscope or Olympus BX51 microscope equipped with Fluoview SV1000 imaging software (Olympus FV1000, Japan). Metamorph software (Molecular Devices) was used to quantify the percentage of the area of the stained area relative to the area of the total tissue.
(§3) To check the motor ability of each experimental group mice, a Rota-rod, Beam test, Tail suspension test, and Hanging wired test were performed. […] The endurance time of the experimental animal was measured in seconds, and the average value was recorded. […] In the Beam test, the time taken to move to the end point after placing the mouse at the start point of a 12 mm wide bar was measured. […]
For orientation: In the rotarod test animals must keep their balance on a rotating rod.

For a further assay, the system named is FUS R521C mice. Kind of assay: amyotrophic lateral sclerosis animal model (FUS R521C mice): immunofluorescence, Tail suspension, Rota-rod, Hanging wired test. It is filed as in vivo, mouse. Conditions: 2-month-old FUS mice, 30 mg/kg daily for 4 weeks, subcutaneous.
Excerpt: as §1, §2, §3

In the case of `CCCCCCCCCCCCC/C=C/[C@@H](O)[C@H](CO)NC(C)=O` [N-acetyl sphingosine], the “COX2 acetylation compared with the sample of SphK1, acetyl-CoA and sphingosine” value on COX2 is on record as “more acetylation”. Besides, the “microglia (Iba1) in brain cortex vs NP-C mice” value with NP-C mice (FIG. 10a) is “remarkable decrease”. In addition, in the assay with NP-C mice (FIG. 10b), the “astrocytes (GFAP) in brain cortex vs NP-C mice” value was “remarkable decrease”. Moreover, in the assay on NP-C mice (FIGS. 10c and d), the “exercise capacity (Rota-rod, Beam test) vs NP-C mice” value is reported as “improved”. In addition, the “activity of microglia (Iba1) vs FUS R521C mice” value with FUS R521C mice (FIG. 11a) is reported as “decreased”. For the same compound, in the assay on FUS R521C mice (FIG. 11b), the “activity of astrocytes (GFAP) vs FUS R521C mice” value is recorded as “decreased”. In addition, the “exercise capacity (Tail suspension, Rota-rod, Hanging wired test) vs FUS R521C mice” value in the assay on FUS R521C mice (FIGS. 11c to e) was “improved”.
